ChEMBL document CHEMBL5308504, “Tm Shift (DSF) assay results for EUbOPEN Chemogenomics Library” (2023)
“And” between values parts separate entries of the source, which are not always exact repeats. Identical values can stand only once.

Legend:
Peregrin (Homo sapiens) = target: T1, Peregrin (Homo sapiens) (UniProt P55201); conditions: Compound concentration 20.0 uM, Protein concentration 2.0 uM, Result type QC Liability
T1 sequence (whole entry): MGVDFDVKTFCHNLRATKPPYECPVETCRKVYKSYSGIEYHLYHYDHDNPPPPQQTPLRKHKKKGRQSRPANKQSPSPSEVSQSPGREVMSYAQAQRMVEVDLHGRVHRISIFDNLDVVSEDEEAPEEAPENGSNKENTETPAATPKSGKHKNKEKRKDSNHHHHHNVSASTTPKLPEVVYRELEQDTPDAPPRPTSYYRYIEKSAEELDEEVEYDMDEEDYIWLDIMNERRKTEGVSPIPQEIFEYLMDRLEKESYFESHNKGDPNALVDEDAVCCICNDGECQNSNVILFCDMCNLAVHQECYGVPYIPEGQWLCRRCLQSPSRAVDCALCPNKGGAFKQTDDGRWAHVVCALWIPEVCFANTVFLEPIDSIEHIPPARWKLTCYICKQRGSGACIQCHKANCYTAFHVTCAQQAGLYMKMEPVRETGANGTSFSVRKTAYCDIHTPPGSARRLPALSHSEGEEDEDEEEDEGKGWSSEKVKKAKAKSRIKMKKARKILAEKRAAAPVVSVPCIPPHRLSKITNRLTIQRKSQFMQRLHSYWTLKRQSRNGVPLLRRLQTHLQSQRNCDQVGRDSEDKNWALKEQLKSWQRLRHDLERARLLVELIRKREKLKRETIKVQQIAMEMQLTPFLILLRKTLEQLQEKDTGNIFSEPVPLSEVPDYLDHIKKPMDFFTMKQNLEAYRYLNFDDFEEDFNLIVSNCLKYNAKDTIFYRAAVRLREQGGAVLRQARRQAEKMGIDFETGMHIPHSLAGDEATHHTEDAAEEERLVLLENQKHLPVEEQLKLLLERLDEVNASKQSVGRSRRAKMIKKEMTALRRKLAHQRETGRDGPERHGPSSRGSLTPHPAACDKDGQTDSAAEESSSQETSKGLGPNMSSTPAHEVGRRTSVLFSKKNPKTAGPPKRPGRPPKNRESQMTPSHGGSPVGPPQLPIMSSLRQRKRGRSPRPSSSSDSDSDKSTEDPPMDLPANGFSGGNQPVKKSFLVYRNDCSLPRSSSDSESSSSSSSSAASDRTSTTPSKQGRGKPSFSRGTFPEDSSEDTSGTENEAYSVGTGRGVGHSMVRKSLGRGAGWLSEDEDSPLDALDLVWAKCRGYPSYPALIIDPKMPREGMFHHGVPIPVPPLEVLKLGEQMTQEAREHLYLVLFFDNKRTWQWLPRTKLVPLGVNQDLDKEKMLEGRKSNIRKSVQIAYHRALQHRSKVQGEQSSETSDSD

[1] = target: Fibroblast growth factor receptor 3 (Homo sapiens) (UniProt P22607); conditions: Compound concentration 20.0 uM, Protein concentration 2.0 uM, Result type QC Liability
Chain of Fibroblast growth factor receptor 3 (Homo sapiens) (P22607 23-806 limits assumed): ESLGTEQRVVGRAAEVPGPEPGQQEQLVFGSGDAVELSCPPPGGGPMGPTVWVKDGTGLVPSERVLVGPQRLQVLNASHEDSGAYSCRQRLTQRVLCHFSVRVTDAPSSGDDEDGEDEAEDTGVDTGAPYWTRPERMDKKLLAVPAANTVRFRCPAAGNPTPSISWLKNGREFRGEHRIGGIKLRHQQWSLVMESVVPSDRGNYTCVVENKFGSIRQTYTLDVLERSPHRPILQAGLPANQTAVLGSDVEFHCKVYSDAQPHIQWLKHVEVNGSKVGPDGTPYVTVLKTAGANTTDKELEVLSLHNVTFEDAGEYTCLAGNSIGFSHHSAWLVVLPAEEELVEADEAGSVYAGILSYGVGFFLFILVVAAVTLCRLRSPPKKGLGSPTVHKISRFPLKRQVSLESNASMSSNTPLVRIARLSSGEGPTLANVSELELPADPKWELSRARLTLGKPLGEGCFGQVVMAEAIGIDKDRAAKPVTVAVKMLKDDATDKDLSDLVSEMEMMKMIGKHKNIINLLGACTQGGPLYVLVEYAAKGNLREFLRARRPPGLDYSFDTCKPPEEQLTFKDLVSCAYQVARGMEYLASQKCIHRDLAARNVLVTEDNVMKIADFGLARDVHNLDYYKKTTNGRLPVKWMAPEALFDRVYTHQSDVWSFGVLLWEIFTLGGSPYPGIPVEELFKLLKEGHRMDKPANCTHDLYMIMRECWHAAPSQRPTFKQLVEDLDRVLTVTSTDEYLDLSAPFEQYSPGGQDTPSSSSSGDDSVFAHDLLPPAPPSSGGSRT
Description: Thermal Shift Assay. Domain: start/stop: P449-E759

Row | SMILES | ΔTm (Peregrin (Homo sapiens)) | ΔTm [1]
1 | C[C@@H]1COCCN1c1cc(=O)n2c(n1)N(Cc1cncc(Cl)c1)[C@H](C(F)(F)F)CC2 | -3.92 °C | 0.57 °C
2 | Cc1ncsc1-c1ccc(CNC(=O)[C@@H]2C[C@@H](O)CN2C(=O)[C@@H](NC(=O)CCCCNC(=O)c2ccc(-c3ccc(N4CCN(C)CC4)c(NC(=O)c4c[nH]c(=O)cc4C(F)(F)F)c3)cc2)C(C)(C)C)cc1 | 1.18 °C | -2.23 °C
3 | O=C(N[C@H](Cc1ccccc1)C(=O)O)c1cccc(OCc2cccnc2)c1 | -2.18 °C | 0.53 °C
4 | CCN(C)S(=O)(=O)Nc1cccc(-c2ccc3c(NC(=O)C4CC4)n[nH]c3c2)c1 | -0.56 °C | 2.38 °C
5 | C[C@@H](CO)CCC[C@@H](C)[C@H]1CC[C@H]2[C@@H]3CC=C4C[C@@H](O)CC[C@]4(C)[C@H]3CC[C@]12C | -1.97 °C | 0.9 °C
6 | CC(=O)Nc1ncc(CN2CCC[C@H](Cc3cc(C)nc(C)c3)C2)s1 | 0.17 °C | 1 °C
7 | CCOC(=O)c1ccc(CN(Cc2ccc(-c3cccc(S(C)(=O)=O)c3)cc2)S(=O)(=O)c2c(C)cc(C)cc2C)o1 | -3.02 °C | -1.46 °C
8 | CN1C(=O)c2ccccc2N(C)c2nc(Nc3cnn(C4CCNCC4)c3)ncc21 | -0.9 °C | 6.58 °C
9 | C[C@]12CC[C@@H]3c4ccc(O)cc4CC[C@H]3[C@@H]1C[C@H]1OC(=O)C[C@]12O | -1.41 °C | 0.36 °C
10 | CNC(=O)c1c[nH]c2ccc(Nc3nccc(-c4ccccn4)n3)cc12 | -0.15 °C | 0.22 °C
11 | C[C@@H]1CCNC(=O)c2cc3ccc(C(=O)Nc4nc5ccccc5n4CCCN(C)C)cc3n21 | -2.35 °C | 2.76 °C
12 | C=CC(=O)Nc1ccc(C(=O)Nc2[nH]nc3c2CN(C(=O)N[C@H](CN(C)C)c2ccccc2)C3(C)C)cc1 | -0.82 °C | 7.32 °C
13 | O=C(CNCc1cc2ccccc2[nH]1)N[C@H]1CC[C@@H](c2nc3ccccc3[nH]2)CC1 | 0.07 °C | 0.46 °C
14 | CN[C@@H](C)C(=O)N[C@H](C(=O)N1CCC[C@H]1c1nc(C(=O)c2ccc(F)cc2)cs1)C1CCCCC1 | -1.91 °C | 0.96 °C
15 | Cc1ccccc1Oc1cc(-n2c(=O)cc(C(F)(F)F)[nH]c2=O)c2ccccc2c1Cl | -1.36 °C | 0.76 °C
16 | COC(=O)c1sccc1S(=O)(=O)Nc1ccc(Nc2ccccc2)cc1OC | -1.04 °C | 0.39 °C
17 | CCOc1ccc(S(=O)(=O)Nc2ccc(Cl)cc2C#Cc2cnc(C(=O)O)cc2OC)c2ncccc12 | -1.33 °C | -5.78 °C
18 | CN(CC(=O)Nc1ccc(F)c(F)c1F)C(=O)c1ccc2c(c1)OCCO2 | -0.72 °C | 0.6 °C
19 | O=C(Nc1cc2cc[nH]c(=O)c2cc1Cl)[C@H]1CNC[C@@H]1c1cccnc1 | -0.61 °C | 0.4 °C
20 | COc1cc(C(=O)O)ncc1C#Cc1ccccc1NS(=O)(=O)c1cccc2c(N(C)C)ccnc12 | -0.45 °C | 0.5 °C
21 | O=C(Nc1ccc(-n2nc(-c3cccnc3)cc2C(F)(F)F)cn1)c1ccc(-c2ccccc2)c(F)c1 | -2.22 °C | 0.42 °C
22 | COc1ccc(C(F)(F)F)cc1NC(=O)Nc1ccc(Oc2cc(C)nc(N)n2)c2ccccc12 | 1.59 °C | 2.41 °C
23 | CN(C)C/C=C/C(=O)Nc1ccc(C(=O)Nc2cccc(Nc3ncc(Cl)c(-c4c[nH]c5ccccc45)n3)c2)cc1 | 0.03 °C | 6.9 °C
24 | O=C(O)c1cccc(C2=C(c3cc(Cl)ccc3OCc3ccc(F)cc3F)CCC2)n1 | -5.87 °C | -0.33 °C
25 | C[C@@H]1CC[C@@]2(OC1)O[C@H]1[C@@H](O)[C@H]3[C@@H]4CC[C@H]5C[C@@H](O[C@@H]6O[C@H](CO)[C@H](O[C@@H]7O[C@H](CO)C(O)[C@H](O[C@@H]8OC[C@@H](O)[C@H](O)[C@H]8O)[C@H]7O[C@@H]7O[C@H](CO)[C@H](O)[C@H](O[C@@H]8O[C@H](CO)[C@@H](O)[C@H](O)[C@H]8O)[C@H]7O)[C@H](O)[C@H]6O)[C@H](O)C[C@]5(C)[C@H]4CC[C@]3(C)[C@H]1[C@@H]2C (stereo not given in full) | -1.35 °C | 0.72 °C
26 | c1ccc(C(OC2CCN(CCCc3nnn[nH]3)CC2)c2ccccc2)cc1 | -2.95 °C | 0.52 °C
27 | c1ccc(C2CCN(c3cnc4c(N5CCOCC5)nccn34)CC2)cc1 | -0.86 °C | 0.73 °C
28 | C[C@@H]1Cc2c([nH]c3ccccc23)[C@@H](c2c(F)cc(/C=C/C(=O)O)cc2F)N1CC(C)(C)F | -4.53 °C | 0.58 °C

Row | SMILES | ΔTm (Peregrin (Homo sapiens)) | ΔTm [1]
29 | Cn1nc(-c2ccc(C(N)=O)cc2)c2ccccc2c1=O | -1.74 °C | 1.06 °C
30 | COc1cc(-c2cn(C)c(=O)c3cnccc23)c(OC)cc1CN(C)C | 0.44 °C | 0.84 °C
31 | COc1cnccc1Nc1nc(-c2nn(Cc3c(F)cc(OCCO)cc3F)c3ccccc23)ncc1OC | -6.89 °C | -7.58 °C
32 | CNC(=O)c1cccc(-c2ccc3c(N4CCOC[C@@H]4C)nc(N4CCOC[C@@H]4C)nc3n2)c1 | -1.11 °C | 0.5 °C
33 | COc1cc(C(=O)NC2CCN(C)CC2)ccc1Nc1ncc(C(F)(F)F)c(NCc2ccc(C)cc2N(C)S(C)(=O)=O)n1 | -1.4 °C | 2.55 °C
34 | Cc1cc(-c2ccnc(Nc3cnn(C)c3)n2)ccc1CNC(=O)N1CC(OC(C)C)C1 | -1.39 °C | 2.34 °C
35 | COc1cc2ncnc(N[C@H](C)c3ccccc3)c2cc1OC1CCN(S(C)(=O)=O)CC1 | -0.11 °C | 0.38 °C
36 | Cc1cc(CN(CC(=O)Nc2ccc(Cl)cc2Cl)C2CCCCC2)ccc1OCC(=O)O | -6.07 °C | -0.33 °C
37 | Cc1cc(CN)cc(C)c1-c1ncn(C)c1-c1ccnc2cc(F)ccc12 | -2.14 °C | 0.85 °C
38 | CN(C)C(=O)Cn1cc(-c2ccc(-c3nnc4ccccn34)cc2)cn1 | -2.13 °C | 0.47 °C
39 | Cc1ncsc1-c1ccc(CNC(=O)[C@@H]2C[C@@H](O)CN2C(=O)[C@@H](NC(=O)C2(F)CC2)C(C)(C)C)c(OCCOc2ccc(CN3CCN(c4cc(-c5ccccc5O)nnc4N)CC3)cc2)c1 | 5.55 °C | -0.75 °C
40 | COc1cc(Nc2cnc(C#N)c(O[C@H](C)CN(C)C)n2)ncc1-c1cnn(C)c1 | -0.27 °C | 1.26 °C
41 | COc1cc(C)c(S(=O)(=O)N(C)CCOCC(=O)N(C)[C@H]2CCC[C@@H](N3CCN(C)CC3)C2)c(C)c1 | -2.36 °C | 0.64 °C
42 | Cc1c(NC(=O)c2ccc(C(C)(C)C)cc2)cccc1-c1cn(C)c(=O)c(Nc2ccc(C(=O)N3CCOCC3)cc2)n1 | -4.33 °C | 0.54 °C
43 | Cc1cccc(CC(=O)N2CCc3c2ccc(-c2cn(C)c4ncnc(N)c24)c3F)n1 | -2.12 °C | -0.88 °C
44 | CC(C)c1cnn2c(NCc3ccccc3)cc(NCCCCCCN)nc12 | -0.13 °C | 0.86 °C
45 | CNc1[nH]c(Nc2ccc(C(=O)N3CCOCC3)cc2OC)nc2ncc(Cl)c1-2 | -1.81 °C | 0.62 °C
46 | CC(C)(C)NC(=O)c1cncn1C1CCN(c2ccc(-c3nnc(C(F)(F)F)o3)cn2)CC1 | -2.22 °C | 0.91 °C
47 | O=C1CN(c2ccccc2F)C(NCCN2CCOCC2)=C1c1nc2cc(Br)ccc2c(=O)[nH]1 | -2.29 °C | 0.53 °C
48 | CN[C@@H](C)C(=O)N[C@H](C(=O)N1CCC[C@H]1C(=O)N[C@H]1c2ccccc2C[C@H]1OCC#CC#CCO[C@@H]1Cc2ccccc2[C@@H]1NC(=O)[C@@H]1CCCN1C(=O)[C@@H](NC(=O)[C@H](C)NC)C1CCCCC1)C1CCCCC1 | -2.65 °C | 1.42 °C
49 | COc1cc(OC)cc(-c2cc3cnc(N)nc3nc2NC(=O)NC(C)(C)C)c1 | -0.52 °C and -0.82 °C | 5.05 °C and 9.51 °C
50 | COc1c(NC(=O)c2cc3cccc(Oc4ccnc(C(=O)N5CCN(C)CC5)c4)c3n2C)cc(C(C)(C)C)cc1NS(C)(=O)=O | -2.38 °C | 1.12 °C
51 | Cc1cc(S(=O)(=O)N2CC(C)(C)c3cc(-c4ccc(C(F)(F)F)cc4)ccc32)ccc1OCC(=O)O | -7.85 °C | 0.47 °C
52 | Cc1cc(OCCC(C)(C)O)cc(C)c1-c1ccc(F)c2c1CC[C@H]2Oc1ccc2c(c1)OC[C@H]2CC(=O)O | -15.3 °C | -2.24 °C
53 | C[C@H](CCOc1cccc(CC(=O)O)c1)N(Cc1cccc(C(F)(F)F)c1Cl)CC(c1ccccc1)c1ccccc1 | -4.82 °C | 2.11 °C
54 | CN1CCN(c2ccc(/C=C(\C#N)c3ccccc3Br)cc2)CC1 | -2.48 °C | 1.23 °C
55 | Cn1cc(-c2cnc3ccc4ccc(CS(=O)(=O)NCc5ccccn5)cc4c(=O)c3c2)cn1 | -1.66 °C | 3.77 °C
